Measured values from publication PMC8468449 (2021).

How the values were obtained:
[1] = test system: 27-mer adenosine aptamer (DNA, aptamer) ACCTGGGGGAGTATTGCGGAGGAAGGT; assay: CNT FET aptasensor, Hill-Langmuir fit; details: no added salt stated; 2 mM Tris-HCl, pH 7.4; Hill n 0.6 ± 0.08; immobilised aptamer
[2] = test system: 35-mer adenosine aptamer (DNA, aptamer) AAAAAAAAAACCTGGGGGAGTATTGCGGAGGAAGG; assay: CNT FET aptasensor, Hill-Langmuir fit; details: no added salt stated; 2 mM Tris-HCl, pH 7.4; Hill n 0.2 ± 0.03; immobilised aptamer

## Nc1ncnc2c1ncn2[C@@H]1O[C@H](CO)[C@@H](O)[C@H]1O
[1]
  Kd: (1.6 ± 1.4) × 10^−7 M
[2]
  Kd: (1.2 ± 1.08) × 10^−9 M
